The test system of this assay is cat's oral microbiome. In words: Microbial diversity metrics in sequential oral samples of a cat after a dental procedure with cefovecin sodium. The class given is in vivo. Particulars: tooth extraction and cefovecin sodium; for PD Evenness: Before 0.53; for HA Evenness: Before 0.62; for PD/HA Evenness: Before 0.85; for PD/HA Diversity: Before 1.21; for PD/HA Richness: Before 1.32; for HA Diversity: Before 1.87; for PD Diversity: Before 2.26; for Pathobiont Richness: Before 3; for HA Richness: Before 31; for PD Richness: Before 41. The protocol: Alpha diversity metrics (Amplified Sequence Variant Richness, Shannon Diversity, and Pielou's Evenness) were calculated for a subset of periodontal disease-associated bacteria (PD) and a subset of health-associated bacteria (HA). The range for PD richness in healthy cats and dogs is 0-39. The range for health richness in healthy cats and dogs is 20-50. For comparison, oral health of each individual was also assessed by examination by a veterinary technician and or a veterinarian and observations of oral health and breath were record as shown in the table below.
Microbial diversity metrics were assessed for three sequential samples collected from a cat with advanced periodontal disease with tooth resorption prior to a dental cleaning to remove calculus, tooth extraction, and treatment with cefovecin sodium, a broad-spectrum antibiotic. Microbial diversity measures for samples collected from a cat with advanced periodontal disease with tooth resorption prior to a dental procedure that included cleaning to remove calculus, tooth extraction, and antibiotic treatment. Samples were collected by swabbing the area between the gingival sulcus and the gingival margin and were sequenced using the Illumina MiniSeq. […] At five weeks after, PD richness had increased but PD diversity had decreased, likely driven by a reduction in evenness. At five weeks after, for HA microbes, there were increases in richness, diversity, and evenness, and the PD/HA ratios for richness and diversity had decreased. Thus, this cat's oral microbiome began to show signs of recovery in a sample collected five weeks later.

The mark [1] stands for this setting: Five weeks after dental cleaning.
Setting [2] is: Two weeks after dental cleaning.

Turning to `CO/N=C(/C(=O)N[C@@H]1C(=O)N2C(C(=O)[O-])=C([C@@H]3CCCO3)CS[C@H]12)c1csc(N)n1.[Na+]` [cefovecin sodium], under setting [1], the “PD Evenness” value was found to be 0.62, the “HA Evenness” value was found to be 0.58, the “PD/HA Evenness” value was 1.07 and the “PD/HA Diversity” value stood at 1.15. Under setting [1], the “PD/HA Richness” value amounted to 0.92, the “HA Diversity” value was determined as 1.62, the “PD Diversity” value came out at 1.86 and the “Pathobiont Richness” value is recorded as 2. Further, under setting [1], the “HA Richness” value is 25 and the “PD Richness” value came to 23. Under setting [2], the “PD Evenness” value turned out to be 0.74, the “HA Evenness” value is reported as 0.43, the “PD/HA Evenness” value was determined as 1.72 and the “PD/HA Diversity” value is listed as 1.95. In addition, under setting [2], the “PD/HA Richness” value came out at 1.46, the “HA Diversity” value was determined as 1.11, the “PD Diversity” value is given as 2.17 and the “Pathobiont Richness” value is given as 2. Moreover, under setting [2], the “HA Richness” value worked out at 13 and the “PD Richness” value is 19.

For the origin of these results see patent US20230016526A1, “SYSTEM AND METHODS FOR MANIPULATION OF THE ORAL MICROBIOME IN MAMMALS” (ANIMAL MICROBIOME ANALYTICS, INC. (D/B/A ANIMALBIOME), priority 2019, published 2023).
